According to the NIST ThermoML archive (doi:10.1021/je060271a):

Conditions: Liquid, Vibrating tube method

CCCCCCC(=O)OCC(COC(=O)CCCCCC)(COC(=O)CCCCCC)COC(=O)CCCCCC [pentaerythritol tetraheptanoate]
Conditions | mass density [kg/m3]
283.14 K, 28046 kPa | 1001
283.14 K, 28067 kPa | 1001
283.14 K, 28089 kPa | 1001.1
283.14 K, 28108 kPa | 1001.1
283.14 K, 28129 kPa | 1001.2
283.14 K, 28154 kPa | 1001.1
283.14 K, 28174 kPa | 1001.2
283.14 K, 28195 kPa | 1001.1
283.14 K, 28219 kPa | 1001
283.14 K, 28239 kPa | 1001.2
283.14 K, 28263 kPa | 1001.3
283.14 K, 28285 kPa | 1001.2
283.14 K, 28305 kPa | 1001.2
283.14 K, 28326 kPa | 1001.3
283.14 K, 28352 kPa | 1001.1
283.14 K, 28370 kPa | 1001.3
283.14 K, 28395 kPa | 1001.3
283.14 K, 28416 kPa | 1001.2
283.14 K, 28441 kPa | 1001.3
283.14 K, 28461 kPa | 1001.4
283.14 K, 28482 kPa | 1001.2
283.14 K, 28503 kPa | 1001.3
283.14 K, 28528 kPa | 1001.3
283.14 K, 28550 kPa | 1001.3
283.14 K, 28575 kPa | 1001.4
283.14 K, 28596 kPa | 1001.4
283.14 K, 28617 kPa | 1001.3
283.14 K, 28642 kPa | 1001.4
283.14 K, 28664 kPa | 1001.4
283.14 K, 28685 kPa | 1001.4
283.14 K, 28707 kPa | 1001.4
283.14 K, 28732 kPa | 1001.3
283.14 K, 28753 kPa | 1001.4
283.14 K, 28775 kPa | 1001.4
283.14 K, 28801 kPa | 1001.5
283.14 K, 28822 kPa | 1001.5
283.14 K, 28848 kPa | 1001.4
283.14 K, 28870 kPa | 1001.4
283.14 K, 28891 kPa | 1001.4
283.14 K, 28912 kPa | 1001.6
283.14 K, 28939 kPa | 1001.6
283.14 K, 28961 kPa | 1001.6
283.14 K, 28983 kPa | 1001.6
283.14 K, 29009 kPa | 1001.5
283.14 K, 29031 kPa | 1001.6
283.14 K, 29058 kPa | 1001.4
283.14 K, 29080 kPa | 1001.6
283.14 K, 29101 kPa | 1001.6
283.14 K, 29123 kPa | 1001.6
283.14 K, 29150 kPa | 1001.7
283.14 K, 29172 kPa | 1001.6
283.14 K, 29195 kPa | 1001.6
283.14 K, 29221 kPa | 1001.7
283.14 K, 29244 kPa | 1001.7
283.14 K, 29267 kPa | 1001.7
283.14 K, 29290 kPa | 1001.7
283.14 K, 29317 kPa | 1001.7
283.14 K, 29339 kPa | 1001.7
283.14 K, 29361 kPa | 1001.8
283.14 K, 29388 kPa | 1001.7
283.14 K, 29411 kPa | 1001.7
283.14 K, 29438 kPa | 1001.9
283.14 K, 29460 kPa | 1001.9
283.14 K, 29483 kPa | 1001.8
283.14 K, 29506 kPa | 1001.8
283.14 K, 29534 kPa | 1001.9
283.14 K, 29557 kPa | 1001.9
283.14 K, 29579 kPa | 1001.8
283.14 K, 29608 kPa | 1001.8
283.14 K, 29631 kPa | 1001.8
283.14 K, 29654 kPa | 1001.9
283.14 K, 29681 kPa | 1001.9
283.14 K, 29704 kPa | 1002
283.14 K, 29727 kPa | 1001.8
283.14 K, 29755 kPa | 1001.9
283.14 K, 29778 kPa | 1001.9
283.14 K, 29801 kPa | 1002
283.14 K, 29829 kPa | 1001.9
283.14 K, 29852 kPa | 1002
283.14 K, 29876 kPa | 1002
283.14 K, 29904 kPa | 1002
283.14 K, 29928 kPa | 1002
283.14 K, 29951 kPa | 1002
283.14 K, 29975 kPa | 1002
283.14 K, 30004 kPa | 1002
283.14 K, 30027 kPa | 1002
283.14 K, 30051 kPa | 1002
283.14 K, 30079 kPa | 1002
283.14 K, 30102 kPa | 1002.1
283.14 K, 30131 kPa | 1002.2
283.14 K, 30156 kPa | 1002.2
283.14 K, 30180 kPa | 1002.1
283.14 K, 30206 kPa | 1002.2
283.14 K, 30254 kPa | 1002.2
283.14 K, 30284 kPa | 1002.1
283.14 K, 30307 kPa | 1002.2
283.14 K, 30336 kPa | 1002.2
283.14 K, 30361 kPa | 1002.3
283.14 K, 30385 kPa | 1002.3
283.14 K, 30410 kPa | 1002.2
283.14 K, 30440 kPa | 1002.3
283.14 K, 30465 kPa | 1002.3
283.14 K, 30490 kPa | 1002.3
283.14 K, 30520 kPa | 1002.3
283.14 K, 30546 kPa | 1002.3
283.14 K, 30571 kPa | 1002.2
283.14 K, 30595 kPa | 1002.3
283.14 K, 30620 kPa | 1002.4
283.14 K, 30650 kPa | 1002.3
283.14 K, 30675 kPa | 1002.4
283.14 K, 30700 kPa | 1002.4
283.14 K, 30730 kPa | 1002.4
283.14 K, 30755 kPa | 1002.4
283.14 K, 30785 kPa | 1002.4
283.14 K, 30810 kPa | 1002.4
283.14 K, 30836 kPa | 1002.5
283.14 K, 30861 kPa | 1002.5
283.14 K, 30892 kPa | 1002.6
283.14 K, 30917 kPa | 1002.5
283.14 K, 30943 kPa | 1002.5
283.14 K, 30974 kPa | 1002.6
283.14 K, 30999 kPa | 1002.5
283.14 K, 31030 kPa | 1002.6
283.14 K, 31056 kPa | 1002.5
283.14 K, 31082 kPa | 1002.6
283.14 K, 31108 kPa | 1002.7
283.14 K, 31138 kPa | 1002.5
283.14 K, 31165 kPa | 1002.5
283.14 K, 31191 kPa | 1002.7
283.14 K, 31223 kPa | 1002.6
283.14 K, 31249 kPa | 1002.7
283.14 K, 31275 kPa | 1002.7
283.14 K, 31306 kPa | 1002.7
283.14 K, 31332 kPa | 1002.7
283.14 K, 31358 kPa | 1002.7
283.14 K, 31390 kPa | 1002.7
283.14 K, 31416 kPa | 1002.8
283.14 K, 31443 kPa | 1002.8
283.14 K, 31474 kPa | 1002.7
283.14 K, 31501 kPa | 1002.8
283.14 K, 31533 kPa | 1002.8
283.14 K, 31560 kPa | 1002.7
283.14 K, 31587 kPa | 1002.8
283.14 K, 31614 kPa | 1002.8
283.14 K, 31646 kPa | 1002.9
283.14 K, 31672 kPa | 1002.9
283.14 K, 31699 kPa | 1003
283.14 K, 31732 kPa | 1002.8
283.14 K, 31759 kPa | 1002.8
283.14 K, 31791 kPa | 1002.9
283.14 K, 31818 kPa | 1002.9
283.14 K, 31845 kPa | 1003
283.14 K, 31878 kPa | 1002.9
283.14 K, 31905 kPa | 1003.1
283.14 K, 31932 kPa | 1002.9
283.14 K, 31960 kPa | 1003
283.14 K, 31994 kPa | 1003
283.14 K, 32021 kPa | 1003
283.14 K, 32054 kPa | 1003.1
283.14 K, 32082 kPa | 1003
283.14 K, 32109 kPa | 1003.2
283.14 K, 32143 kPa | 1003.1
283.14 K, 32170 kPa | 1003.1
283.14 K, 32198 kPa | 1003.1
283.14 K, 32231 kPa | 1003.2
283.14 K, 32260 kPa | 1003.1
283.14 K, 32288 kPa | 1003.2
283.14 K, 32321 kPa | 1003.2
283.14 K, 32350 kPa | 1003.3
283.14 K, 32378 kPa | 1003.2
283.14 K, 32406 kPa | 1003.3
283.14 K, 32441 kPa | 1003.2
283.14 K, 32469 kPa | 1003.3
283.14 K, 32503 kPa | 1003.3
283.14 K, 32531 kPa | 1003.3
283.14 K, 32560 kPa | 1003.4
283.14 K, 32595 kPa | 1003.3
283.14 K, 32624 kPa | 1003.5
283.14 K, 32653 kPa | 1003.3
283.14 K, 32687 kPa | 1003.3
283.14 K, 32718 kPa | 1003.3
283.14 K, 32747 kPa | 1003.4
283.14 K, 32776 kPa | 1003.4
283.14 K, 32810 kPa | 1003.5
283.14 K, 32840 kPa | 1003.5
283.14 K, 32869 kPa | 1003.5
283.14 K, 32898 kPa | 1003.6
283.14 K, 32934 kPa | 1003.4
283.14 K, 32963 kPa | 1003.5
283.14 K, 32992 kPa | 1003.5
283.14 K, 33028 kPa | 1003.6
283.14 K, 33057 kPa | 1003.6
283.14 K, 33093 kPa | 1003.5
283.14 K, 33125 kPa | 1003.6
283.14 K, 33155 kPa | 1003.7
283.14 K, 33185 kPa | 1003.6
283.14 K, 33215 kPa | 1003.7
283.14 K, 33251 kPa | 1003.7
283.14 K, 33281 kPa | 1003.7
283.14 K, 33311 kPa | 1003.6
283.14 K, 33347 kPa | 1003.7
283.14 K, 33377 kPa | 1003.6
283.14 K, 33414 kPa | 1003.7
283.14 K, 33444 kPa | 1003.8
283.14 K, 33474 kPa | 1003.8
283.14 K, 33511 kPa | 1003.8
283.14 K, 33542 kPa | 1003.9
283.14 K, 33572 kPa | 1003.8
283.14 K, 33604 kPa | 1003.8
283.14 K, 33641 kPa | 1003.9
283.14 K, 33671 kPa | 1003.9
283.14 K, 33708 kPa | 1003.8
283.14 K, 33739 kPa | 1003.8
283.14 K, 33770 kPa | 1003.8
283.14 K, 33808 kPa | 1004
283.14 K, 33839 kPa | 1004
283.14 K, 33870 kPa | 1003.9
283.14 K, 33907 kPa | 1004
283.14 K, 33938 kPa | 1003.9
283.14 K, 34406 kPa | 1004.3
283.14 K, 34575 kPa | 1004.3
283.14 K, 34576 kPa | 1004.3
283.15 K, 100.4 kPa | 985.9
